Test results as given in patent publication US20250304578A1, “NITROGEN-CONTAINING FUSED HETEROCYCLIC COMPOUNDS OF N-SULFONAMIDE AND USE THEREOF” (NUTSHELL THERAPEUTICS (SHANGHAI) CO., LTD., priority 2023, published 2025).
Where two headings read alike, the source gives them in different places.

Legend:
[1] = target: voltage-gated potassium channel hERG (Homo sapiens (Human), UniProt Q12809); assay: hERG potassium channel inhibitory activity test (manual patch clamp, HEK293); assay type: cell-based; conditions: HEK293 cells stably expressing hERG
Experimental: This experiment was conducted to detect the effect of compounds in five concentrations on hERG channel current, obtaining a dose-effect curve and calculating the IC50.
Cell line and cell culture: HEK293 cell line stably expressing the hERG ion channel (Cat. No.: K1236) was purchased from Invitrogen Company. […] When the cell density grows to 40% to 80% of the bottom area of the culture dish, the cells were digested with trypsin and passaged three times per week. Prior to the experiment, cells were cultured in a 3.5 cm culture dish at a density of 5×10^5, induced with 1 μg/mL doxycycline for 48 hours, and then the cells were digested and seeded on glass slides for subsequent manual patch clamp experiments. […]
Experimental procedure: A coverslip loaded with HEK293 cells in a culture dish was placed in the perfusion chamber of the microscope stage. […] The hERG current used to detect the test compound was continuously recorded for 120 seconds before administration to evaluate the stability of the hERG current generated by the test cells. […] Test of the inhibitory effect of the test compound on hERG current: First, the hERG current measured in the extracellular fluid containing 0.1% DMSO was used as the detection baseline. […] After each perfusion was completed, approximately 5 minutes were waited to allow the compounds to fully act on the cells, and hERG currents were synchronously recorded.

CYP3A4/5 = assay: Multi-concentration inhibitory activity curve of CYP3A4/5 enzymes; assay type: in vitro ADME; conditions: human liver microsomes
Experimental: The buffer was filtered through a 0.45 μm filter.
Liver microsome working solution (final system concentration of 0.5 mg/mL) was prepared. […] The above stock solution was diluted with acetonitrile (4-fold dilution, 6 non-zero concentrations).
The half-maximal inhibitory concentration (IC50) was calculated using Graph Pad Prism.

[2] = Metabolic stability in liver microsomes; assay type: in vitro ADME; conditions: for microsomal CLint at 1 μM: read-out: In vitro Clint (μL/min/mg protein); for half-life at 1 μM: read-out: In vitro t1/2
Experimental: The test compound and the positive control compound (dextromethorphan as a control compound) were dissolved respectively in DMSO to prepare a stock solution with a concentration of 10 mM, and the above stock solution was diluted into 200 μM working solution with DMSO. 8.709 g of potassium hydrogen phosphate (K2HPO4) was dissolved in 950 mL of water, and the pH value of the solution was adjusted to 7.4 with hydrochloric acid, and then the volume was adjusted to 1000 mL with water. After filtration using a 0.22 μm filter membrane, the mixture was stored in a 4° C. refrigerator for later use. After liver microsomes of various species (protein concentration of 20 mg/mL) were thawed in a 37° C. water bath, the liver microsomes were diluted with a phosphate buffer respectively to obtain a liver microsome working solution with protein concentration of 0.629 mg/mL. 5 mM NADPH solution was prepared using the above phosphate buffer for later use. 1 mg/mL stock solution of terfenadine/tolbutamide was prepared with DMSO and then diluted with a 50% methanol/50% acetonitrile mixed solution to a reaction stop solution containing 5/10 ng/mL (terfenadine/tolbutamide) internal standard.
238.5 μL of liver microsome working solutions of various species were added to a 1.1 mL microtube, and 1.5 μL of the test compound working solution or the positive control compound (dextromethorphan) working solution (200 μM) was added respectively, mixed well, and pre-incubated in a 37° C. water bath for 5 minutes. 60 μL of NADPH solution was added to start the reaction, and after mixing well, at the time points of 0, 5, 15, 30, and 60 minutes after the reaction, 30 μL of the reaction mixture was respectively pipetted and added to 300 μL of the reaction stop solution. Samples from all time points were vortexed vigorously for 1 minute and centrifuged at 4000 rpm for 15 minutes at 4° C. 100 μL of the supernatant was added to 100 μL of pure water and mixed well for LC-MS/MS analysis.
The slope (ke) was determined by plotting the natural logarithm of the percentage of compound remaining against time, and the Tin and intrinsic clearance (CLint) were calculated based on the first-order kinetic formula: […]
The compound remaining rate is calculated as follows:
Intrinsic clearance CLint (μL/min/mg protein)=0.693*1000/T1/2/protein concentration (0.5 mg protein/mL)

[3] = Metabolic stability test in hepatocytes; assay type: in vitro ADME; conditions: cryopreserved hepatocytes in suspension; for hepatocyte CLint at 1 μM: read-out: In vitro Clint (μL/min/10^6 cells); for half-life at 1 μM: read-out: In vitro t1/2
Experimental: The test compound and the control drug verapamil powder were prepared into a high concentration stock solution using DMSO, and diluted to a 100 μM working solution with 50% acetonitrile/water before use, with final concentrations of 1 μM for the test compound and verapamil.
• 1) 49.5 mL of Williams' Medium E and 0.5 mL GlutaMAX were mixed as the incubation solution. The hepatocyte recovery solution and the incubation solution were pre-warmed in a 37° C. water bath for at least 15 minutes prior to use. • 2) A tube of cryopreserved hepatocytes was taken, ensuring that the hepatocytes were still in a cryogenic frozen state prior to resuscitation. The hepatocytes were quickly placed in a 37° C. water bath and gently shaken until all ice crystals were completely dispersed, sprayed with 70% ethanol and transferred to a biosafety cabinet. • 3) The contents of the hepatocyte tube were poured into a centrifuge tube containing 50 mL of recovery medium, which were centrifuged at 100 g for 10 minutes. After centrifugation, the recovery medium was aspirated, and sufficient incubation medium was added to obtain a cell suspension having a cell density of approximately 1.5×10^6 cells/mL. • 4) Cellometer Vision was used to count hepatocytes and determine the density of viable cells. The survival rate of hepatocytes must be greater than 75%. The hepatocyte suspension was diluted with incubation medium to a viable cell density of 0.5×10^6 cells/mL. • 5) A portion of hepatocyte suspension with a density of 0.5×10^6 cells/mL was boiled in water for 5 minutes to inactivate as a negative control. After cells were inactivated, substrate conversion mediated by non-cellular enzymes could be easily investigated.
• 1) 198 μL of the suspension of live or inactivated cells was transferred to a 96-well deep-well plate, which was then placed on a vortexer and preheated in an incubator for 10 minutes. Live cells were incubated in duplicate, while inactivated cells were incubated in single. • 2) 2 μL of 100 μM test compound or verapamil was added to each well for the reaction initiation, and the deep-well plate was placed back on the incubator vortexer. • 3) 25 μL of the suspension were taken from the incubated samples at 0, 15, 30, 60, 90, and 120 minutes, respectively, and added to 150 μL of acetonitrile containing internal standards (200 nM alprazolam, 200 nM labetalol, 2 μM ketoprofen, and 200 nM caffeine) to terminate the reaction. The mixture was vortexed for 10 minutes and centrifuged at 3220 g and 4° C. for 30 minutes. After centrifugation was completed, 100 μL of the supernatant and 100 μL of ultra-pure water were mixed well for UPLC-MS/MS analysis detection.
All data calculations were performed using Microsoft Excel software. Peak areas were detected by extracting the ion chromatogram. The in vitro half-life (t1/2) of the parent drug was detected by linear fitting of the natural logarithm of the percentage of parent drug […] with time.
The in vitro half-life (t1/2) was calculated by the slope: […]
In vitro intrinsic clearance (unit μL/min/10^6 cells) was calculated using the following formula:
[formula] • V=incubation volume per well (0.2 mL); • N=number of cells per well (0.1×10^6 cells)

[4] = pH 7.4, probe midazolam, substrate midazolam, read-out: CYP3A4/5 IC50 (μM) (Midazolam)
[5] = pH 7.4, probe testosterone, substrate testosterone, read-out: CYP3A4/5 IC50 (μM) (Testosterone)
[6] = ICR/CD-1, pH 7.4, Mouse liver microsomes
[7] = Sprague Dawley, pH 7.4, Rat liver microsomes

voltage-gated potassium channel hERG, sequence (Q12809 whole entry): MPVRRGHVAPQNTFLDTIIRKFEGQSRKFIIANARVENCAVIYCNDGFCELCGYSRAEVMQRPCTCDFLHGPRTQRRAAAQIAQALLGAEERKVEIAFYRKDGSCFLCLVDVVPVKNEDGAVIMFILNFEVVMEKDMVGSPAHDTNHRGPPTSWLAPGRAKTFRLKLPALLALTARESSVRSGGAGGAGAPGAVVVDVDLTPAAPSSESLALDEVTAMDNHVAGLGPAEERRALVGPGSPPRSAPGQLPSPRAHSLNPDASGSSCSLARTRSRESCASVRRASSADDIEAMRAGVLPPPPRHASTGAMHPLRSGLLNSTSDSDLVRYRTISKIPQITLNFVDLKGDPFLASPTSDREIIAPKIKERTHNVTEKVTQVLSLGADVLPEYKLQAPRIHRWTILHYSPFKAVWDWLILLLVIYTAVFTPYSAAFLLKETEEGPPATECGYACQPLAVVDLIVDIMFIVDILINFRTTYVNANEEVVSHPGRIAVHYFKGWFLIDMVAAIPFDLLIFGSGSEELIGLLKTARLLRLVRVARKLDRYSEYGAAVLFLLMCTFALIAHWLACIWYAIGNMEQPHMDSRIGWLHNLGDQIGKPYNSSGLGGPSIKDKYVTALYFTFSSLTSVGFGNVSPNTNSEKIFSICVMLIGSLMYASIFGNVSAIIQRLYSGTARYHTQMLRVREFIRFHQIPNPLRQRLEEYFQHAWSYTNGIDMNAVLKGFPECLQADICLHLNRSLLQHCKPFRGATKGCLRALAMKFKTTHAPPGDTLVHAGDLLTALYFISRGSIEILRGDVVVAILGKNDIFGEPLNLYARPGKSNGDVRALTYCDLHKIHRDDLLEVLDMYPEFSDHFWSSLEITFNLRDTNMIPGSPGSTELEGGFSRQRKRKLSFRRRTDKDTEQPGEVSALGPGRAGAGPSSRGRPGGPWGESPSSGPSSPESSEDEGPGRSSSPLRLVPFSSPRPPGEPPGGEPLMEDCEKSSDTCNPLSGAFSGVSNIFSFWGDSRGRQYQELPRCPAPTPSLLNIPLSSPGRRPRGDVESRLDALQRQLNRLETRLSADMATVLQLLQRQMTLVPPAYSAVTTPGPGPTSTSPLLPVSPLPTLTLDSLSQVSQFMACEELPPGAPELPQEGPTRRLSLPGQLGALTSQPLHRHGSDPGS

IC50 at 10 min (CYP3A4/5; [4])	IC50 at 10 min (CYP3A4/5; [5])	microsomal CLint at 1 μM [2, 6]	half-life at 1 μM [2, 6]	microsomal CLint at 1 μM [2, 7]	half-life at 1 μM [2, 7]	microsomal CLint at 1 μM ([2]; pH 7.4, Human liver microsomes)	half-life at 1 μM ([2]; pH 7.4, Human liver microsomes)	hepatocyte CLint at 1 μM ([3]; Human hepatocytes)	half-life at 1 μM ([3]; Human hepatocytes)	hepatocyte CLint at 1 μM ([3]; Mouse hepatocytes)	half-life at 1 μM ([3]; Mouse hepatocytes)	hepatocyte CLint at 1 μM ([3]; Rat hepatocytes)	half-life at 1 μM ([3]; Rat hepatocytes)	SMILES	IC50 [1]
> 50 µM	> 50 µM	13.7 µL/min/mg	1.2 h	35 µL/min/mg	0.467 h	7.3 µL/min/mg	2.27 h	< 2.7 µL/min/1e6 cells	> 8.52 h	< 2.7 µL/min/1e6 cells	> 8.52 h	< 2.7 µL/min/1e6 cells	> 8.52 h	COc1nc(C(=O)NS(C)(=O)=O)ccc1NCC#Cc1cc2c(N[C@@H]3CCN(C)C[C@@H]3F)cccn2c1CC(F)(F)F [Cpd-1, 5-((3-(8-(((3S,4R)-3-Fluoro-1-methylpiperidin-4-yl)amino)-3-(2,2,2-trifluoroethyl)indolizin-2-yl)prop-2-yn-1-yl)amino)-6-methoxy-N-(methylsulfonyl)picolinamide]	> 30 µM
> 50 µM	> 50 µM	12.6 µL/min/mg	1.83 h	11.7 µL/min/mg	1.98 h	< 5.4 µL/min/mg	> 4.27 h	< 2.7 µL/min/1e6 cells	> 8.52 h	< 2.7 µL/min/1e6 cells	> 8.52 h	< 2.7 µL/min/1e6 cells	> 8.52 h	[2H]C([2H])([2H])Oc1nc(C(=O)NS(C)(=O)=O)ccc1NCC#Cc1cc2c(N[C@@H]3CCN(C)C[C@@H]3F)cccn2c1CC(F)(F)F [Cpd-2, 5-((3-(8-(((3S,4R)-3-Fluoro-1-methylpiperidin-4-yl)amino)-3-(2,2,2-trifluoroethyl)indolizin-2-yl)prop-2-yn-1-yl)amino)-6-(methoxy-d3)-N-(methylsulfonyl)picolinamide]	> 30 µM
